In ChEMBL document CHEMBL1201862, “PubChem BioAssay data set” (2004):
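Cultured in 96-well plates, cells were exposed to test compound for 48 hours across five concentrations. GI50 = concentration required for 50% inhibition of growth.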 Activity calls are given as the source filed them. Rule as the data show it: active = GI50 up to about 1.1 µM and inactive = higher.

Assays:
Test in all cases: inhibition of tumour cell growth, NCI panel, 48 h
SK-MEL-28 = tested on: SK-MEL-28
NCI-H226 = tested on: NCI-H226
NCI/ADR-RES = tested on: NCI/ADR-RES
K562 = tested on: K562
TK-10 = tested on: TK-10
T47D = tested on: T47D
HL-60 = tested on: HL-60
HT-29 = tested on: HT-29
SNB-19 = tested on: SNB-19
NCI-H23 = tested on: NCI-H23
U-251 = tested on: U-251
KM12 = tested on: KM12
MOLT-4 = tested on: MOLT-4
RXF 393 = tested on: RXF 393
PC-3 = tested on: PC-3
HOP-92 = tested on: HOP-92
786-0 = tested on: 786-0
UACC-62 = tested on: UACC-62
SW-620 = tested on: SW-620

Measured: GI50

CN(C)CCCNc1c2c(nc3ccc(Cl)cc13)CCCC2
inactive: SK-MEL-28 18.3 µM | NCI-H226 22.3 µM | NCI/ADR-RES 18.1 µM | TK-10 15.2 µM | T47D 26.5 µM | HL-60 15.9 µM | HT-29 5.47 µM | SNB-19 19.1 µM | NCI-H23 15.8 µM | U-251 14.9 µM | KM12 13.6 µM | MOLT-4 4.12 µM | RXF 393 12.9 µM | PC-3 13.7 µM | HOP-92 10.3 µM | 786-0 10.5 µM | UACC-62 16.9 µM | SW-620 9.75 µM
active: K562 0.492 µM

C[C@]12CCC(=O)[C@@H](CCC3=CC(=O)C=CC3=O)[C@@H]1CCC2=O
inactive: SK-MEL-28 13.2 µM | NCI-H226 20.7 µM | NCI/ADR-RES 38 µM | K562 2.14 µM | TK-10 16 µM | T47D 9.23 µM | HL-60 2.7 µM | HT-29 25.6 µM | SNB-19 41.5 µM | NCI-H23 12.5 µM | U-251 20.7 µM | KM12 14.3 µM | MOLT-4 5.21 µM | RXF 393 1.9 µM | PC-3 12.9 µM | HOP-92 14.2 µM | 786-0 10 µM | UACC-62 16.6 µM | SW-620 18.2 µM

COC(=O)C(Cc1ccccc1)NC(=O)c1ccc(CNC(=S)NCc2cccc(CNC(=S)NCc3ccccc3)c2)cc1 (stereo not given)
inactive: SK-MEL-28 > 34 µM | NCI-H226 > 34.1 µM | NCI/ADR-RES > 32.7 µM | K562 > 32.8 µM | TK-10 > 35.8 µM | T47D > 33.7 µM | HL-60 > 62.5 µM | HT-29 > 33.7 µM | SNB-19 > 33.3 µM | NCI-H23 > 35.4 µM | U-251 > 33.5 µM | KM12 > 29 µM | MOLT-4 > 34 µM | RXF 393 20 µM | PC-3 > 32 µM | HOP-92 > 32 µM | 786-0 > 34.6 µM | UACC-62 > 34.6 µM | SW-620 > 32.9 µM

CC(OP(=O)(O)O)C(N)C(=O)O (stereo not given)
inactive: SK-MEL-28 > 100 µM | NCI-H226 > 100 µM | NCI/ADR-RES > 100 µM | K562 > 100 µM | TK-10 > 100 µM | T47D > 100 µM | HL-60 > 100 µM | HT-29 > 100 µM | SNB-19 > 100 µM | NCI-H23 > 100 µM | U-251 > 100 µM | KM12 > 100 µM | MOLT-4 > 100 µM | RXF 393 > 100 µM | PC-3 > 100 µM | HOP-92 > 100 µM | 786-0 > 100 µM | UACC-62 > 100 µM | SW-620 > 100 µM

C=C1C(=O)O[C@@H]2C[C@@H](C)[C@@H]3[C@@H](OC4OC(COC(C)=O)C(O)C(O)C4O)CC(=O)[C@@]3(C)C[C@H]12 (stereo not given in full)
inactive: SK-MEL-28 2.15 µM | NCI-H226 11 µM | TK-10 1.68 µM | T47D 2.84 µM | HT-29 1.22 µM | SNB-19 20.2 µM | NCI-H23 12.5 µM | U-251 7.19 µM | KM12 11 µM | MOLT-4 1.94 µM | RXF 393 1.85 µM | PC-3 10.3 µM | UACC-62 1.55 µM
active: NCI/ADR-RES 0.855 µM | K562 0.596 µM | HL-60 0.211 µM | HOP-92 0.902 µM | 786-0 0.396 µM | SW-620 0.574 µM

NC1=CN(Cc2ccccc2)C2=N/C(=C\c3ccco3)C(=O)N12
inactive: SK-MEL-28 > 100 µM | NCI-H226 > 100 µM | NCI/ADR-RES > 100 µM | K562 > 100 µM | TK-10 > 100 µM | T47D > 100 µM | HL-60 > 100 µM | HT-29 > 100 µM | SNB-19 > 100 µM | NCI-H23 > 100 µM | U-251 > 100 µM | KM12 > 100 µM | MOLT-4 > 100 µM | RXF 393 > 100 µM | PC-3 > 100 µM | HOP-92 > 100 µM | 786-0 > 100 µM | UACC-62 > 100 µM | SW-620 > 100 µM

Cc1cn(S(=O)(=O)c2ccccc2)c2c(OCc3ccccc3)cc([N+](=O)[O-])cc12
inactive: SK-MEL-28 79.8 µM | NCI-H226 58.7 µM | NCI/ADR-RES > 100 µM | K562 > 100 µM | TK-10 > 100 µM | T47D 29.2 µM | HL-60 > 100 µM | HT-29 > 100 µM | SNB-19 56.4 µM | NCI-H23 96.8 µM | U-251 31 µM | KM12 > 100 µM | MOLT-4 > 100 µM | RXF 393 25.1 µM | PC-3 32.9 µM | HOP-92 74 µM | 786-0 27.1 µM | UACC-62 21.3 µM | SW-620 63 µM

CCOC(=O)c1c(-c2ccccc2)oc(=O)c(Cc2cccc3cccnc23)c1-c1ccccc1
inactive: SK-MEL-28 > 10 µM | NCI-H226 > 10 µM | NCI/ADR-RES > 10 µM | K562 > 10 µM | TK-10 > 10 µM | T47D > 10 µM | HL-60 > 10 µM | HT-29 > 10 µM | SNB-19 > 10 µM | NCI-H23 > 10 µM | U-251 > 10 µM | KM12 > 10 µM | MOLT-4 > 10 µM | RXF 393 > 10 µM | PC-3 9.55 µM | HOP-92 > 10 µM | 786-0 > 10 µM | UACC-62 > 10 µM | SW-620 > 10 µM

COc1cc(OC)c(/C=C\c2ccnc3ccccc23)c(OC)c1
active: K562 0.433 µM | HL-60 0.347 µM | KM12 0.736 µM
inactive: SK-MEL-28 5.37 µM | NCI-H226 4.11 µM | NCI/ADR-RES 2.07 µM | TK-10 4.61 µM | T47D 3.12 µM | HT-29 2.67 µM | SNB-19 5.5 µM | NCI-H23 5.61 µM | U-251 3.81 µM | MOLT-4 3.56 µM | RXF 393 2.39 µM | PC-3 5.51 µM | HOP-92 3.51 µM | 786-0 5.53 µM | UACC-62 2.49 µM | SW-620 3.62 µM

Cc1ccc(-c2cc(-c3ccc(Cl)cc3)nc(/N=C3\C(=O)N(CN(C)C)c4ccccc43)n2)cc1
inactive: SK-MEL-28 > 100 µM | NCI-H226 > 100 µM | NCI/ADR-RES 43.5 µM | K562 27.3 µM | TK-10 85.3 µM | T47D 28.8 µM | HL-60 7.89 µM | HT-29 46.1 µM | SNB-19 > 100 µM | NCI-H23 33.6 µM | U-251 55 µM | KM12 64.6 µM | MOLT-4 11.5 µM | RXF 393 22.3 µM | PC-3 50.9 µM | HOP-92 98.9 µM | 786-0 54.6 µM | UACC-62 97.1 µM | SW-620 12.9 µM
